From US10736908B2, “Antiviral aryl-amide phosphodiamide compounds” (Merck Sharp & Dohme Corp., priority 2016, dated 2020)
Read-outs that look alike come from different tables or passages of the source.

Test system: HIV-1 (H9/IIIB strain)
Assay: Multiple round HIV-1 infection assay (Viking assay) in MT4-GFP cells
Type: cell-based
Conditions: HIV-1 replication in MT4-GFP cells
Protocol: Assessing Antiviral Potency in a Multiple Round HIV-1 Infection Assay (Viking Assay)
The antiviral activity of the tenofovir prodrugs of the Examples herein was assessed in an assay that measures the rate of replication of HIV in cell culture, termed the Viking assay (VIral KINetics in Green cells) and performed as follows. HIV-1 replication was monitored using MT4-gag-GFP clone D3 (hereafter designated MT4-GFP), which are MT-4 cells modified to harbor a GFP reporter gene, the expression of which is dependent on the HIV-1 expressed proteins tat and rev. Productive infection of an MT4-GFP cell with HIV-1 results in GFP expression approximately 24 h post-infection. MT4-GFP cells were maintained at 37° C./5% CO2/90% relative humidity in RPMI 1640 supplemented with 10% fetal bovine serum, 100 U/ml penicillin/streptomycin, and 400 μg/ml G418 to maintain the reporter gene. For infections, MT4-GFP cells were placed in the same medium lacking G418 and infected overnight with HIV-1 (H9/IIIB strain) virus at an approximate multiplicity of infection of 0.01 in the same incubation conditions. […] Compound plates were prepared by dispensing compounds dissolved in DMSO into wells of 384 well poly-D-lysine-coated plates (0.2 μl/well) using an ECHO acoustic dispenser. Each compound was tested in a 10-point serial 3-fold dilution (typical final concentrations: 8.4 μM-0.42 nM). Controls included no inhibitor (DMSO only) and a combination of three antiviral agents (efavirenz, indinavir, an in-house integrase strand transfer inhibitor at final concentrations of 4 μM each). Cells were added (50 μL/well) to compound plates and the infected cells were maintained at 37° C./5% CO2/90% relative humidity.
Infected cells were quantified at two time points, ˜48 h and ˜72 h post-infection, by counting the number of green cells in each well using an Acumen eX3 scanner. The increase in the number of green cells over ˜24 h period gives the reproductive ratio, R0, which is typically 5-15 and has been shown experimentally to be in logarithmic phase (data not shown). Inhibition of R0 is calculated for each well, and IC50s determined by non-linear 4-parameter curve fitting.

[1] = Human immunodeficiency virus 1, IIIB, 50% NHS (normal human serum), read-out: Viking, IC50 (50% NHS)
[2] = Human immunodeficiency virus 1, IIIB, head prints 100% NHS (normal human serum), read-out: Viking, IC50 (100% NHS)
[3] = 50% NHS (normal human serum), read-out: Viking, IC50 (50% NHS)
[4] = head prints 100% NHS (normal human serum), read-out: Viking, IC50 (100% NHS)

Row | SMILES | IC50 [1] [µM] | IC50 [2] [µM] | IC50 [3] [µM] | IC50 [4] [µM]
1 | CC(C)OC(=O)C(C)(C)NP(=O)(CO[C@H](C)Cn1cnc2c(N)ncnc21)NC(=O)c1ccc(Cl)cc1 (mixture of isomers) [Example 1A, isopropyl 2-(((R)—((((R)-1-(6-amino-9H-purin-9-yl)propan-2-yl)oxy)methyl)(4-chlorobenzamido)phosphoryl)amino)-2-methylpropanoate and isopropyl 2-(((S)—((((R)-1-(6-amino-9H-purin-9-yl)propan-2-yl)oxy)methyl)(4-chlorobenzamido)phosphoryl)amino)-2-methylpropanoate] | 0.286 | 0.0824 |  | 
2 | CCCOC(=O)C(C)(C)NP(=O)(CO[C@H](C)Cn1cnc2c(N)ncnc21)NC(=O)c1ccc(OC)cc1 (single isomer, unassigned) [Example 2A] | 0.0932 | 0.0324 |  | 
3 | CCCOC(=O)C(C)(C)NP(=O)(CO[C@H](C)Cn1cnc2c(N)ncnc21)NC(=O)c1ccc(Cl)cc1 (single isomer, unassigned) [Example 4A] |  |  | 0.0579 | 0.012
4 | CC(C)COC(=O)C(C)(C)NP(=O)(CO[C@H](C)Cn1cnc2c(N)ncnc21)NC(=O)c1ccc(Cl)cc1 (single isomer, unassigned) [Example 5A] |  |  | 0.0798 | 0.0123
5 | CC(C)COC(=O)C(C)(C)NP(=O)(CO[C@H](C)Cn1cnc2c(N)ncnc21)NC(=O)c1ccc(Cl)cc1 (single isomer, unassigned) [Example 5B] |  |  | 0.0244 | 0.0019
6 | C[C@H](Cn1cnc2c(N)ncnc21)OCP(=O)(NC(=O)c1ccc(Cl)cc1)NC(C)(C)C(=O)OC1CCC1 (single isomer, unassigned) [Example 6A] |  |  | 0.0369 | 0.0111
7 | C[C@H](Cn1cnc2c(N)ncnc21)OCP(=O)(NC(=O)c1ccc(Cl)cc1)NC(C)(C)C(=O)OC1CCCC1 (single isomer, unassigned) [Example 7A] |  |  | 0.0317 | 0.0084
8 | C[C@H](Cn1cnc2c(N)ncnc21)OCP(=O)(NC(=O)c1ccc(Cl)cc1)NC(C)(C)C(=O)OC1CCCC1 (single isomer, unassigned) [Example 7B] |  |  | 0.0135 | 0.00192
9 | CCOCCOC(=O)C(C)(C)NP(=O)(CO[C@H](C)Cn1cnc2c(N)ncnc21)NC(=O)c1ccc(Cl)cc1 (single isomer, unassigned) [Example 8A] |  | 0.0639 | 0.133 | 
10 | CCOCCOC(=O)C(C)(C)NP(=O)(CO[C@H](C)Cn1cnc2c(N)ncnc21)NC(=O)c1ccc(Cl)cc1 (single isomer, unassigned) [Example 8B] |  |  | 0.0622 | 0.0411
11 | C[C@H](Cn1cnc2c(N)ncnc21)OCP(=O)(NC(=O)c1ccc(Cl)cc1)NC(C)(C)C(=O)OC1CCOCC1 (single isomer, unassigned) [Example 9A] |  |  | 1.45 | 0.405
12 | CC(C)OC(=O)C(C)(C)NP(=O)(CO[C@H](C)Cn1cnc2c(N)ncnc21)NC(=O)c1ccc(F)cc1 (single isomer, unassigned) [Example 10A] |  |  | 0.264 | 0.129
13 | CCCCCOC(=O)C(C)(C)NP(=O)(CO[C@H](C)Cn1cnc2c(N)ncnc21)NC(=O)c1ccc(F)cc1 (single isomer, unassigned) [Example 11B] |  |  | 0.0308 | 0.0057
14 | CCOCCOC(=O)C(C)(C)NP(=O)(CO[C@H](C)Cn1cnc2c(N)ncnc21)NC(=O)c1ccccc1Cl (single isomer, unassigned) [Example 12A] | 0.0906 | 0.0309 |  | 
15 | CCOCCOC(=O)C(C)(C)NP(=O)(CO[C@H](C)Cn1cnc2c(N)ncnc21)NC(=O)c1ccccc1Cl (single isomer, unassigned) [Example 12B] |  |  | 0.0834 | 0.0267
16 | CC(C)OC(=O)C(C)(C)NP(=O)(CO[C@H](C)Cn1cnc2c(N)ncnc21)NC(=O)c1ccncn1 (single isomer, unassigned) [Example 13A] |  |  | 2.13 | 0.854

Row | SMILES | IC50 [1] [µM] | IC50 [2] [µM] | IC50 [3] [µM] | IC50 [4] [µM]
17 | CC(C)OC(=O)C(C)(C)NP(=O)(CO[C@H](C)Cn1cnc2c(N)ncnc21)NC(=O)c1ccncn1 (single isomer, unassigned) [Example 13B] |  |  | 0.48 | 0.164
18 | CC(C)OC(=O)C(C)(C)NP(=O)(CO[C@H](C)Cn1cnc2c(N)ncnc21)NC(=O)c1cnccn1 (single isomer, unassigned) [Example 14A] |  |  | 1.57 | 0.284
19 | CC(C)OC(=O)C(C)(C)NP(=O)(CO[C@H](C)Cn1cnc2c(N)ncnc21)NC(=O)c1cnccn1 (single isomer, unassigned) [Example 14B] |  |  | 0.314 | 0.112
20 | CCCCCOC(=O)C(C)(C)NP(=O)(CO[C@H](C)Cn1cnc2c(N)ncnc21)NC(=O)c1cccs1 (single isomer, unassigned) [Example 15B] |  |  | 0.0298 | 0.0081
21 | CCCCCOC(=O)C(C)(C)NP(=O)(CO[C@H](C)Cn1cnc2c(N)ncnc21)NC(=O)c1ccccc1OC (single isomer, unassigned) [Example 16A] | 0.153 | 0.0133 |  | 
22 | CCCCCOC(=O)C(C)(C)NP(=O)(CO[C@H](C)Cn1cnc2c(N)ncnc21)NC(=O)c1ccccc1OC (single isomer, unassigned) [Example 16B] |  |  | 0.139 | 0.0155
23 | COc1ccc(C(=O)NP(=O)(CO[C@H](C)Cn2cnc3c(N)ncnc32)NC(C)(C)C(=O)OC(C)C)cc1 (single isomer, unassigned) [Example 17A] |  |  | 0.0543 | 0.0183
24 | COc1ccc(C(=O)NP(=O)(CO[C@H](C)Cn2cnc3c(N)ncnc32)NC(C)(C)C(=O)OC(C)C)cc1 (single isomer, unassigned) [Example 17B] |  |  | 0.39 | 0.157
25 | CCCCCOC(=O)C(C)(C)NP(=O)(CO[C@H](C)Cn1cnc2c(N)ncnc21)NC(=O)c1ccc(C)cc1 (single isomer, unassigned) [Example 18A] |  |  | 0.0354 | 0.009
26 | CCCOC(=O)C(C)(C)NP(=O)(CO[C@H](C)Cn1cnc2c(N)ncnc21)NC(=O)c1ccccc1Cl (single isomer, unassigned) [Example 21B] | 0.229 | 0.0336 |  | 
27 | CCOC(=O)C(C)(C)NP(=O)(CO[C@H](C)Cn1cnc2c(N)ncnc21)NC(=O)c1ccc(C(C)(C)C)cc1 (single isomer, unassigned) [Example 22A] |  |  | 0.0481 | 0.0151
28 | CCOC(=O)C(C)(C)NP(=O)(CO[C@H](C)Cn1cnc2c(N)ncnc21)NC(=O)c1ccc(C(C)(C)C)cc1 (single isomer, unassigned) [Example 22B] |  |  | 0.0157 | 0.0058
29 | CCCOC(=O)C(C)(C)NP(=O)(CO[C@H](C)Cn1cnc2c(N)ncnc21)NC(=O)c1ccc(OC)cc1 (stereo partly drawn) [Example 2B, propyl 2-(((R)—((((R)-1-(6-amino-9H-purin-9-yl)propan-2-yl)oxy)methyl)(4-methoxy-benzamido)phosphoryl)amino)-2-methylpropanoate and propyl 2-(((S)—((((R)-1-(6-amino-9H-purin-9-yl)propan-2-yl)oxy)methyl(4-methoxybenzamido)phosphoryl)amino)-2-methylpropanoate] | 0.0698 | 0.0275 |  | 
30 | CCCOC(=O)C(C)(C)NP(=O)(CO[C@H](C)Cn1cnc2c(N)ncnc21)NC(=S)c1ccc(Cl)cc1 (stereo partly drawn) [Example 19, propyl 2-((((((R)-1-(6-amino-9H-purin-9-yl)propan-2-yl)oxy)methyl)(4-chlorophenylthioamido)phosphoryl)amino)-2-methylpropanoate] | 0.347 | 0.0321 |  | 
31 | CC(C)OC(=O)C(C)(C)NP(=O)(CO[C@H](C)Cn1cnc2c(N)ncnc21)NC(=S)c1ccc(Cl)cc1 (stereo partly drawn) [Example 20, isopropyl 2-((((((R)-1-(6-amino-9H-purin-9-yl)propan-2-yl)oxy)methyl)(4-chlorophenylthioamido)phosphoryl)amino)-2-methylpropanoate] | 0.494 | 0.118 |  | 
